Some test systems named below: SF-539 CNS; RPMI-8226 leukemia; HS 578T breast; NCI/ADR-RES ovarian; HCC-2998 colon; SK-OV-3 ovarian; RXF 393 renal; HL-60(TB) leukemia; IGROV1 ovarian; CCRF-CEM leukemia.
Common to all, as to test: NCI anticancer screen, dose series, 48 h

SMILES strings stand for the structures.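 Five concentrations, 48 hours, 96-well plates. The concentration for 50% growth inhibition is given as GI50. At the TGI there is no net growth.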

Regarding `CCOC(=O)Cc1c[nH]c(=S)[nH]c1=O`, the GI50 in the assay on SF-539 CNS, in the assay on RPMI-8226 leukemia, in the assay on HS 578T breast, in the assay on NCI/ADR-RES ovarian, with HCC-2998 colon and in the assay on SK-OV-3 ovarian was greater than 100 µM in each case. For the same compound, the GI50 in the assay with RXF 393 renal, in the assay with HL-60(TB) leukemia, in the assay on IGROV1 ovarian and in the assay on CCRF-CEM leukemia was greater than 100 µM in each case. The TGI with SF-539 CNS, with RPMI-8226 leukemia, with HS 578T breast, in the assay on NCI/ADR-RES ovarian, with HCC-2998 colon and in the assay on SK-OV-3 ovarian was greater than 100 µM in each case. Moreover, the TGI in the assay on RXF 393 renal, in the assay on HL-60(TB) leukemia, with IGROV1 ovarian and with CCRF-CEM leukemia was greater than 100 µM throughout.

Consider `CCc1c(C)[nH]c(/C=C2\N=C(c3ccc[nH]3)C=C2OC)c1C`, for which the GI50 was 0.448 µM in the assay on SF-539 CNS; 0.0239 µM with RPMI-8226 leukemia; 0.164 µM in the assay with HS 578T breast; 0.17 µM in the assay with NCI/ADR-RES ovarian; 0.451 µM in the assay with HCC-2998 colon; 2.95 µM in the assay with SK-OV-3 ovarian. The GI50 in the assay with RXF 393 renal was 0.473 µM; with HL-60(TB) leukemia, 0.127 µM; in the assay with IGROV1 ovarian, 0.274 µM; in the assay on CCRF-CEM leukemia, less than 0.0257 µM. Further, the TGI in the assay on SF-539 CNS came out at 2.16 µM; in the assay on RPMI-8226 leukemia it was 1.05 µM; with HS 578T breast, 2.3 µM; with NCI/ADR-RES ovarian it was 6.42 µM; in the assay with HCC-2998 colon it was 4.65 µM; in the assay with SK-OV-3 ovarian, 13.5 µM. Besides, the TGI came out at 4.11 µM with RXF 393 renal, 2.1 µM with HL-60(TB) leukemia, 3.53 µM in the assay with IGROV1 ovarian and 2.11 µM in the assay with CCRF-CEM leukemia.

For the compound `CCc1ccc(NC(=O)Nc2c[nH]c3ccccc23)cc1`, the GI50 was 3.09 µM in the assay on SF-539 CNS; 0.567 µM in the assay with RPMI-8226 leukemia; 10.4 µM in the assay on HS 578T breast; 14.2 µM in the assay with NCI/ADR-RES ovarian; 18 µM with HCC-2998 colon; 19.7 µM with SK-OV-3 ovarian. In addition, the GI50 in the assay with RXF 393 renal was 11.6 µM; in the assay with HL-60(TB) leukemia, 0.811 µM; in the assay with IGROV1 ovarian it was 5.72 µM; in the assay on CCRF-CEM leukemia, 0.358 µM. Moreover, the TGI was greater than 40.6 µM with SF-539 CNS; greater than 100 µM in the assay with RPMI-8226 leukemia; greater than 67.8 µM in the assay on HS 578T breast; greater than 62.8 µM with NCI/ADR-RES ovarian; greater than 50.8 µM in the assay on HCC-2998 colon; greater than 73.2 µM in the assay on SK-OV-3 ovarian. For the same compound, the TGI with RXF 393 renal is greater than 59.4 µM; in the assay with HL-60(TB) leukemia, 5.48 µM; with IGROV1 ovarian it was greater than 45.5 µM; in the assay on CCRF-CEM leukemia it was greater than 100 µM.

On to `N=C(N)c1nn(C2OC(CO)C(O)C2O)c2nc[nH]c(=O)c12` (stereo not drawn), for which the GI50 in the assay with SF-539 CNS was 0.367 µM; with RPMI-8226 leukemia, 0.352 µM; in the assay on HS 578T breast, 0.376 µM; in the assay with NCI/ADR-RES ovarian, 0.321 µM; in the assay with HCC-2998 colon, 0.849 µM; with SK-OV-3 ovarian, 0.409 µM. Also, the GI50 with RXF 393 renal is 0.696 µM; in the assay on HL-60(TB) leukemia, 0.207 µM; in the assay on IGROV1 ovarian it was 1.19 µM; with CCRF-CEM leukemia it was 0.434 µM. Also, the TGI stood at 1.75 µM in the assay with SF-539 CNS; 2.5 µM in the assay on RPMI-8226 leukemia; 2.27 µM with HS 578T breast; 1.72 µM with NCI/ADR-RES ovarian; 3.37 µM with HCC-2998 colon; 2.97 µM in the assay with SK-OV-3 ovarian. The results for the TGI with RXF 393 renal, in the assay on HL-60(TB) leukemia and in the assay with IGROV1 ovarian were 4.89 µM, 0.538 µM and 3.81 µM, respectively.

Turning to `Nc1nc(/C=C\c2ccc([N+](=O)[O-])o2)nc(N2CCN(c3ccccc3)CC2)n1`, the GI50 is 16.7 µM in the assay on SF-539 CNS; 3.62 µM in the assay with RPMI-8226 leukemia; 25.3 µM with HS 578T breast; 19.2 µM in the assay with NCI/ADR-RES ovarian; 10.1 µM with HCC-2998 colon; 17.1 µM with SK-OV-3 ovarian. Besides, the GI50 in the assay on RXF 393 renal is 2.94 µM; with HL-60(TB) leukemia it was 7.73 µM; in the assay on IGROV1 ovarian it was 5.31 µM; in the assay on CCRF-CEM leukemia, 8.01 µM. The TGI with SF-539 CNS is 34 µM; in the assay on RPMI-8226 leukemia, greater than 100 µM; in the assay with HS 578T breast, 93 µM; in the assay with NCI/ADR-RES ovarian, 54.8 µM; in the assay on HCC-2998 colon, 25.8 µM; in the assay with SK-OV-3 ovarian, 44.7 µM. Further, the TGI amounted to 41.5 µM in the assay with RXF 393 renal, 61.8 µM in the assay with HL-60(TB) leukemia, 32.3 µM with IGROV1 ovarian and 82.3 µM in the assay on CCRF-CEM leukemia.

With `CC[C@H](Nc1nc(N)nc(C)c1C#N)c1nc2cccc(CN(C)c3ncc(C(=O)NO)cn3)c2c(=O)n1-c1ccccc1`, the GI50 was 0.591 µM in the assay on SF-539 CNS; 0.212 µM with RPMI-8226 leukemia; 0.474 µM with HS 578T breast; 11.4 µM with NCI/ADR-RES ovarian; 0.806 µM in the assay with HCC-2998 colon; 0.969 µM with SK-OV-3 ovarian. The GI50 was 0.47 µM with RXF 393 renal, 0.262 µM in the assay on HL-60(TB) leukemia, 0.569 µM with IGROV1 ovarian and 0.228 µM in the assay on CCRF-CEM leukemia. Moreover, the TGI was 6.12 µM in the assay with SF-539 CNS; greater than 40.8 µM with RPMI-8226 leukemia; greater than 11.1 µM with HS 578T breast; greater than 50 µM in the assay on NCI/ADR-RES ovarian; 2.32 µM with HCC-2998 colon; 3.22 µM in the assay with SK-OV-3 ovarian. Further, the TGI in the assay on RXF 393 renal is 1.33 µM; in the assay on HL-60(TB) leukemia, 3.48 µM; in the assay with IGROV1 ovarian, 2.28 µM; in the assay with CCRF-CEM leukemia it was greater than 50 µM.

For the compound `COc1cc(Cn2cc3c(c2)-c2oncc2CC3)cc(OC)c1OC`, the GI50 was 0.0237 µM with SF-539 CNS; 0.0459 µM with RPMI-8226 leukemia; 0.0306 µM with HS 578T breast; 0.0268 µM in the assay on NCI/ADR-RES ovarian; 0.0413 µM in the assay on HCC-2998 colon; 0.0402 µM in the assay on SK-OV-3 ovarian. The GI50 in the assay with RXF 393 renal is 0.0255 µM; with HL-60(TB) leukemia it was less than 0.0177 µM; in the assay on IGROV1 ovarian it was 0.0456 µM; in the assay on CCRF-CEM leukemia, 0.0193 µM. The TGI was 0.0657 µM in the assay with SF-539 CNS; 10.4 µM in the assay with RPMI-8226 leukemia; greater than 51.3 µM in the assay on HS 578T breast; 17 µM in the assay with HCC-2998 colon; greater than 57.5 µM in the assay on SK-OV-3 ovarian; greater than 100 µM with RXF 393 renal. Also, the TGI with HL-60(TB) leukemia was found to be 0.456 µM; with IGROV1 ovarian, 24.8 µM; with CCRF-CEM leukemia, 16.7 µM.
